ChEMBL document CHEMBL1126344, “Substituted penta- and hexapeptides as potent inhibitors of herpes simplex virus type 2 ribonucleotide reductase” (Bioorg Med Chem Lett, 1992)
Non-standard residues stand in square brackets, D forms with d. Residues, ends and D or L forms follow the SMILES beside them. *: point of attachment. Dibenzylacetyl = O=C(C(Cc1ccccc1)Cc1ccccc1)*; NMeY = CN[C@@H](Cc1ccc(O)cc1)C(=O)O; tBuAla = CC(C)(C)C[C@H](N)C(=O)O; NBn2 = c1ccc(CN(Cc2ccccc2)*)cc1; Cha = N[C@@H](CC1CCCCC1)C(=O)O; AllylGly = C=CC[C@H](N)C(=O)O; Morpholide = C1CN(*)CCO1; Pyrrolidide = C1CCN(*)C1; NHBn = c1ccc(CN*)cc1; NMeEt = CCN(C)*

How the values were obtained:
Human alphaherpesvirus 2 = assay: Relative potency to that of YAGAVVNDL against Herpes Simplex Virus type 2 ribonucleotide reductase
[1] = The compound was tested in vitro for inhibitory activity against Herpes Simplex Virus type 2 ribonucleotide reductase; parameters: species or system Human alphaherpesvirus 2
[2] = Inhibitory activity of YAGAVVNDL against Herpes Simplex Virus type 2 (HSV-2) ribonucleotide reductase determined as control; parameters: species or system Human alphaherpesvirus 2

Relative potency (Human alphaherpesvirus 2) | IC50 [1] [nM] | IC50 [2] [µM] | Compound
38 | 500 | 19 | CC(C)C[C@H](NC(=O)[C@H](CC(=O)O)NC(=O)[C@H](CC(N)=O)NC(=O)[C@@H](NC(=O)[C@@H](NC(=O)C(Cc1ccccc1)Cc1ccccc1)C(C)C)C(C)C)C(=O)O
1.5 | 11000 | 17 | CC(C)C[C@H](NC(=O)[C@H](CC(=O)O)NC(=O)[C@H](CC(N)=O)NC(=O)[C@@H](NC(=O)[C@@H](NC(=O)CCc1ccccc1)C(C)C)C(C)C)C(=O)O
2.2 | 11000 | 24 | CC(C)C[C@H](NC(=O)[C@H](CC(=O)O)NC(=O)[C@H](CC(N)=O)NC(=O)[C@@H](NC(=O)[C@@H](NC(=O)N(Cc1ccccc1)Cc1ccccc1)C(C)C)C(C)C)C(=O)O
1 | 21000 | 20 | CC(C)C[C@H](NC(=O)[C@H](CC(=O)O)NC(=O)[C@H](CC(N)=O)NC(=O)[C@@H](NC(=O)[C@@H](NC(=O)CCc1ccc(O)cc1)C(C)C)C(C)C)C(=O)O
0.27 | 90000 | 24 | CC(C)C[C@H](NC(=O)[C@H](CC(=O)O)NC(=O)[C@H](CC(N)=O)NC(=O)[C@@H](NC(=O)[C@@H](NC(=O)C(c1ccccc1)c1ccccc1)C(C)C)C(C)C)C(=O)O
5.4 | 6500 | 35 | CC(C)C[C@H](NC(=O)[C@H](CC(=O)O)NC(=O)[C@H](CC(N)=O)NC(=O)[C@@H](NC(=O)[C@@H](NC(=O)C(Cc1ccc(O)cc1)Cc1ccc(O)cc1)C(C)C)C(C)C)C(=O)O
0.24 | 21000 | 5 | CC(C)C[C@H](NC(=O)[C@H](CC(=O)O)NC(=O)[C@H](CC(N)=O)NC(=O)[C@@H](NC(=O)[C@@H](NC(=O)C(C)(C)C)C(C)C)C(C)C)C(=O)O
55 | 400 | 22 | CC(C)C[C@H](NC(=O)[C@H](CC(=O)O)NC(=O)[C@H](CC(=O)NCc1ccccc1)NC(=O)[C@@H](NC(=O)[C@@H](NC(=O)C(Cc1ccccc1)Cc1ccccc1)C(C)C)C(C)C)C(=O)O (Dibenzylacetyl-VVD(NHBn)DL-OH)
50 | 200 | 10 | CC(C)[C@H](NC(=O)C(Cc1ccccc1)Cc1ccccc1)C(=O)N[C@H](C(=O)N[C@@H](CC(=O)NCc1ccccc1)C(=O)N[C@@H](CC(=O)O)C(=O)N[C@@H](CC(C)(C)C)C(=O)O)C(C)C (Dibenzylacetyl-VVD(NHBn)D[tBuAla]-OH)
70 | 300 | 21 | CC(C)[C@H](NC(=O)C(Cc1ccccc1)Cc1ccccc1)C(=O)N[C@H](C(=O)N[C@@H](CC(=O)N(C)C)C(=O)N[C@@H](CC(=O)O)C(=O)N[C@@H](CC(C)(C)C)C(=O)O)C(C)C (Dibenzylacetyl-VVD(NMe2)D[tBuAla]-OH)
120 | 100 | 12 | CC(C)[C@H](NC(=O)C(Cc1ccccc1)Cc1ccccc1)C(=O)N[C@H](C(=O)N[C@@H](CC(N)=O)C(=O)N[C@@H](CC(=O)O)C(=O)N[C@@H](CC(C)(C)C)C(=O)O)C(C)C (Dibenzylacetyl-VVND[tBuAla]-OH)
63 | 150 | 9.5 | CC(C)C[C@H](NC(=O)[C@H](CC(=O)O)NC(=O)[C@H](CC(=O)N(C)C)NC(=O)[C@@H](NC(=O)[C@@H](NC(=O)[C@@H](N)CC(=O)O)C(C)C)C(C)C)C(=O)O (H-DVVD(NMe2)DL-OH)
14 | 2000 | 27 | COC(=O)C[C@H](NC(=O)[C@@H](NC(=O)[C@@H](NC(=O)[C@@H](N)Cc1ccccc1)C(C)C)C(C)C)C(=O)N[C@@H](CC(=O)O)C(=O)N[C@@H](CC(C)C)C(=O)O (H-FVVD(OMe)DL-OH)
0.52 | – | – | CC(C)C[C@H](NC(=O)[C@H](CC(=O)O)NC(=O)[C@H](CC(N)=O)NC(=O)[C@@H](NC(=O)[C@@H](NC(=O)[C@@](C)(N)Cc1ccc(O)cc1)C(C)C)C(C)C)C(=O)O (stereo in doubt; form 1) [listing 2 of 2 here]
– | 1500 | 9 | CC(C)C[C@H](NC(=O)[C@H](CC(=O)O)NC(=O)[C@H](CC(N)=O)NC(=O)[C@@H](NC(=O)[C@@H](NC(=O)C(Cc1ccccc1)Cc1ccc(O)cc1)C(C)C)C(C)C)C(=O)O (stereo in doubt; form 2) [listing 1 of 2 here]
– | 120000 | – | CC(C)C[C@H](NC(=O)[C@H](CC(=O)O)NC(=O)[C@H](CC(N)=O)NC(=O)[C@@H](NC(=O)[C@@H](NC(=O)[C@@](C)(N)Cc1ccc(O)cc1)C(C)C)C(C)C)C(=O)O (stereo in doubt; form 2) [listing 1 of 2 here]
6 | – | – | CC(C)C[C@H](NC(=O)[C@H](CC(=O)O)NC(=O)[C@H](CC(N)=O)NC(=O)[C@@H](NC(=O)[C@@H](NC(=O)C(Cc1ccccc1)Cc1ccc(O)cc1)C(C)C)C(C)C)C(=O)O (stereo in doubt; form 2) [listing 2 of 2 here]

Continued, compound first:

Compound | Relative potency (Human alphaherpesvirus 2) | IC50 [1] [nM] | IC50 [2] [µM]
CC(C)C[C@H](NC(=O)[C@H](CC(=O)O)NC(=O)[C@H](CC(N)=O)NC(=O)[C@@H](NC(=O)[C@@H](NC(=O)CC(c1ccccc1)c1ccccc1)C(C)C)C(C)C)C(=O)O | 6 | 10000 | 60
CC(C)C[C@H](NC(=O)[C@H](CC(=O)O)NC(=O)[C@H](CC(N)=O)NC(=O)[C@@H](NC(=O)[C@@H](NC(=O)C(C)C)C(C)C)C(C)C)C(=O)O | 0.17 | 30000 | 5
CC(C)C[C@H](NC(=O)[C@H](CC(=O)O)NC(=O)[C@H](CC(N)=O)NC(=O)[C@@H](NC(=O)[C@@H](NC(=O)N(c1ccccc1)c1ccccc1)C(C)C)C(C)C)C(=O)O | 0.14 | 170000 | 24
CC(C)C[C@H](NC(=O)[C@H](CC(=O)O)NC(=O)[C@H](CC(=O)N1CCCC1)NC(=O)[C@@H](NC(=O)[C@@H](NC(=O)[C@@H](N)CC(=O)O)C(C)C)C(C)C)C(=O)O (H-DVVD(Pyrrolidide)DL-OH) | 32 | 1000 | 32
CC(C)C[C@H](NC(=O)[C@H](CC(=O)O)NC(=O)[C@H](CC(=O)N1CCOCC1)NC(=O)[C@@H](NC(=O)[C@@H](NC(=O)[C@@H](N)Cc1ccc(O)cc1)C(C)C)C(C)C)C(=O)O (H-YVVD(Morpholide)DL-OH) | 36 | 600 | 22
CC(C)C[C@H](NC(=O)[C@H](CC(=O)O)NC(=O)[C@H](CC(=O)N(Cc1ccccc1)Cc1ccccc1)NC(=O)[C@@H](NC(=O)[C@@H](NC(=O)[C@@H](N)Cc1ccc(O)cc1)C(C)C)C(C)C)C(=O)O (H-YVVD(NBn2)DL-OH) | 13 | 2000 | 25
CC(C)C[C@H](NC(=O)[C@H](CC(=O)O)NC(=O)[C@H](CC(=O)NCc1ccccc1)NC(=O)[C@@H](NC(=O)[C@@H](NC(=O)[C@@H](N)Cc1ccc(O)cc1)C(C)C)C(C)C)C(=O)O (H-YVVD(NHBn)DL-OH) | 5.5 | 4000 | 22
CNC(=O)C[C@H](NC(=O)[C@@H](NC(=O)[C@@H](NC(=O)[C@@H](N)Cc1ccc(O)cc1)C(C)C)C(C)C)C(=O)N[C@@H](CC(=O)O)C(=O)N[C@@H](CC(C)C)C(=O)O (H-YVVD(NHMe)DL-OH) | 11 | 2000 | 21
CC(C)C[C@H](NC(=O)[C@H](CC(=O)O)NC(=O)[C@H](CC(=O)N(C)C)NC(=O)[C@@H](NC(=O)[C@@H](NC(=O)[C@@H](N)Cc1ccc(O)cc1)C(C)C)C(C)C)C(=O)O (H-YVVD(NMe2)DL-OH) | 90 | 300 | 27
CC(C)[C@H](NC(=O)[C@@H](NC(=O)[C@@H](N)Cc1ccc(O)cc1)C(C)C)C(=O)N[C@@H](CC(=O)N(C)C)C(=O)N[C@@H](CC(=O)O)C(=O)N[C@@H](CC(C)(C)C)C(=O)O (H-YVVD(NMe2)D[tBuAla]-OH) | 110 | 200 | 22
CCN(C)C(=O)C[C@H](NC(=O)[C@@H](NC(=O)[C@@H](NC(=O)[C@@H](N)Cc1ccc(O)cc1)C(C)C)C(C)C)C(=O)N[C@@H](CC(=O)O)C(=O)N[C@@H](CC(C)C)C(=O)O (H-YVVD(NMeEt)DL-OH) | 25 | 400 | 10
CC(C)C[C@H](NC(=O)[C@H](CC(=O)O)NC(=O)[C@H](CC(=O)N1CCCC1)NC(=O)[C@@H](NC(=O)[C@@H](NC(=O)[C@@H](N)Cc1ccc(O)cc1)C(C)C)C(C)C)C(=O)O (H-YVVD(Pyrrolidide)DL-OH) | 32 | 1000 | 32
C=CC[C@H](NC(=O)[C@H](CC(=O)O)NC(=O)[C@H](CC(N)=O)NC(=O)[C@@H](NC(=O)[C@@H](NC(=O)[C@@H](N)Cc1ccc(O)cc1)C(C)C)C(C)C)C(=O)O (H-YVVND[AllylGly]-OH) | – | > 430000 | 22
CC(C)[C@H](NC(=O)[C@@H](NC(=O)[C@@H](N)Cc1ccc(O)cc1)C(C)C)C(=O)N[C@@H](CC(N)=O)C(=O)N[C@@H](CC(=O)O)C(=O)N[C@@H](CC1CCCCC1)C(=O)O (H-YVVND[Cha]-OH) | 0.29 | 55000 | 16
CN[C@@H](Cc1ccc(O)cc1)C(=O)N[C@H](C(=O)N[C@H](C(=O)N[C@@H](CC(N)=O)C(=O)N[C@@H](CC(=O)O)C(=O)N[C@@H](CC(C)C)C(=O)O)C(C)C)C(C)C (H-[NMeY]VVNDL-OH) | – | – | 15
CC(C)C[C@H](NC(=O)[C@H](CC(=O)O)NC(=O)[C@H](CC(N)=O)NC(=O)[C@@H](NC(=O)[C@@H](NC(=O)[C@@](C)(N)Cc1ccc(O)cc1)C(C)C)C(C)C)C(=O)O (stereo in doubt; form 1) [listing 1 of 2 here] | – | 58000 | 30
CC(C)C[C@H](NC(=O)[C@H](CC(=O)O)NC(=O)[C@H](CC(N)=O)NC(=O)[C@@H](NC(=O)[C@@H](NC(=O)C(Cc1ccccc1)Cc1ccc(O)cc1)C(C)C)C(C)C)C(=O)O (stereo in doubt; form 1) | 21 | – | –
CC(C)C[C@H](NC(=O)[C@H](CC(=O)O)NC(=O)[C@H](CC(N)=O)NC(=O)[C@@H](NC(=O)[C@@H](NC(=O)[C@@](C)(N)Cc1ccc(O)cc1)C(C)C)C(C)C)C(=O)O (stereo in doubt; form 2) [listing 2 of 2 here] | 0.25 | – | –
